Assays:
[1] = tested on: excisional wounds; conditions: cited from earlier work
[2] = tested on: heart wounds; conditions: 500 ngs continuously, slow release pellet; cited from earlier work
[3] = tested on: wounds such as lacerations; assay: Lacerations treated with continuous topical T-3 or TriAc; type: in vivo, human; conditions: continuous topical application, in approximately three days
[4] = tested on: dermis and epidermis; conditions: topical application, not intraperitoneal; cited from earlier work
[5] = tested on: burns; conditions: small quantities in drinking water, excision and grafting, after 5 weeks; cited from earlier work
[6] = tested on: burned and blistered area of the right thigh; assay: Topical T-3 in Silvadene ointment on a burn
[7] = tested on: TSH; conditions: topically applied, humans; cited from earlier work

Row | SMILES | healing of excisional non thermal wounds ([1]; eurythroid mouse, daily) | wound healing ([1]; intraperitoneal, hypothyroid mice) | healing of heart wounds [2] | signs of inflammation [3] | growth of the dermis and epidermis [4] | healing rate of burns [5] | cellular debris and signs of inflammation ([6]; T-3 1 mg in 30 ml Silvadene ointment, daily for two weeks) | appearance of the treated area ([6]; after 6 weeks) | effect on TSH levels or other thyroid hormone function tests [7]
1 | N[C@@H](Cc1cc(I)c(Oc2ccc(O)c(I)c2)c(I)c1)C(=O)O [T-3, 3,5,3′-triiodothyronine] | accelerates the healing | improved wound healing | decreased healing of heart wounds | increased signs of inflammation | affect the growth of the dermis and epidermis | no change in the healing rate | more cellular debris and signs of inflammation | less reddened areas and had less discolored skin | 
2 | N[C@@H](Cc1cc(I)c(Oc2cc(I)c(O)c(I)c2)c(I)c1)C(=O)O [T-4, thyroxine] |  |  |  |  |  |  |  |  | no effect on TSH levels

— patent publication US20100047332A1, “Treatments for burns using thyroid hormone compound in a human” (priority 2005, published 2010)
